Laboratory results as given in US7414140B2 (Teva Pharmaceutical Industries Ltd., priority 2003, dated 2008).

Assay: Solubility of fluvastatin sodium in solvents
Assay type: physicochemical
Conditions: in water at 100° C.; read-out: Concentration of solution obtainable (solubility)
Text: Fluvastatin sodium Form XLI can be prepared by precipitating fluvastatin sodium from a mixture of water and acetonitrile. Fluvastatin sodium should first be dissolved in water. The water may be heated in order to produce a more concentrated solution and maximized recovery of Form XLI. […] The addition is done at whatever elevated temperature was used to dissolve the starting material or at higher temperature. The addition is dropwise and will generally require adding a excess of acetonitrile over the amount of water that was used. For example, we used a little less than four volumes of acetonitrile. The resulting heterogeneous mixture is then allowed to cool. Before isolating the fluvastatin sodium Form XLI that precipitates. The recovery can be improved by adding an addition portion of acetonitrile after cooling.
Fluvastatin sodium Form L can be prepared by precipitation from a mixture of methanol and ethyl acetate. The fluvastatin sodium starting material, in any crystalline form or amorphous, should first be dissolved in the methanol. […] The starting material can be dissolved either at ambient or elevated temperature, e.g. the boiling point of methanol. Once dissolved, precipitation of Form L is induced by dropwise addition of ethyl acetate to the solution at elevated temperature. The amount of ethyl acetate used is preferably about three times the volume of methanol. […]

solubility: ≥ 375 mg/mL
Structure (SMILES): CC(C)n1c(/C=C/C(O)CC(O)CC(=O)O)c(-c2ccc(F)cc2)c2ccccc21 (stereo not drawn) [Fluvastatin sodium, [R*,S*-(E)]-(±)-7-[3-(4-fluorophenyl)-1-(1-methylethyl)-1H-indol-2-yl]-3,5-dihydroxy-6-heptenoic acid monosodium]
